# pIC50: −log10 of the molar value. Like-named read-outs stand apart in the source and are kept apart here.
# Tests used:
# liver-enriched genes = assay: HLC maturation screening (microfluidic RT-qPCR of liver-enriched genes); assay type: cell-based, human; conditions: 96 liver-enriched genes
# Method: FIG. 6: Effect of MB-1 on the expression of 96 liver-enriched genes in HLC. HLC seeded on collagen I-coated 6-well plates were treated with MB-1 (1, 5, or 10 μM) in 1% DMSO, or 1% DMSO (each in triplicate) for 4 days. Cells were harvested and expression of 96 liver-enriched genes was analyzed by microfluidic RT-qPCR (Fluidigm).
# HLC are seeded on collagen 1-coated 96-well plates in 100 μl medium D containing Matrigel 0.25 mg/ml. The next day (day 1), compound library was added to cells at a final concentration 4 μM in 1% DMSO. Fresh medium and compound was replenished 2 days later (day 3). At day 4, cells were harvested using Cells-to-Ct lysis kit (Ambion/Thermo Fisher), total RNAs were reverse-transcribed, and the resulting cDNA products were loaded into the microfluidic 96.96 Dynamic Array™ IFC and assayed against 32 liver-enriched genes on Biomark HD system (Fluidigm). The relative gene expression was calculated from delta Ct values using house-keeping gene (PPIA) in DMSO control as reference; delta Ct values were then converted to fold-change values. Compounds that increased liver-enriched gene expression in HLC ≥3-fold compared to DMSO control were further tested in dose-response (1, 5, 10, and 50 μM). The secondary screen was performed as above using 96-liver enriched genes. The top candidate (MB-1) was used for all experiments utilizing HLC. […]
# [1] = system: albumin (secreted, cellular toxicity marker); assay: Albumin (in vitro cellular tox marker), multiplex assay, PHH; assay type: cell-based; conditions: human
# Method: (§1) Fresh primary human hepatocytes (PXB-PHH) harvested from humanized mice (uPA/SCID mice)—herein called PHH—were obtained from PhoenixBio Co., Ltd (Japan). Cells were seeded on a collagen I-coated plate at the following cell density: 35,000 cells/well (384-well), 70,000 cells/well (96-well), or, 400,000 cells/well (24-well) in modified hepatocyte clonal growth medium (dHCGM). dHCGM is a DMEM medium containing 100 U/ml Penicillin, 100 μg/ml Streptomycin, 20 mM Hopes, 44 mM NaHCO3, 15 μg/ml L-proline, 0.25 μg/ml insulin, 50 nM Dexamethazone, 5 ng/ml EGF, 0.1 mM Asc-2P, 2% DMSO and 10% FBS (Ishida et al., 2015). Cells were cultured at 37° C. incubator in a humidified atmosphere with 5% CO2. Culture medium was replaced 24 h post-plating and every 2 days until harvest.
# (§2) Following 4 day of maturation with 1 μM MB-1, HLC were incubated with HBV (purified from CHB individuals) at multiplicity of infection (MOI) 10-40 without PEG for 24 hr; virus inoculum was removed the following day. […] Compound treatment in HLC and PHH was started at day 3 post infection. Compound (in powder) was dissolved in DMSO; the final concentration of DMSO added to cells is 1%. Fresh compound was replenished every 2 day until cells were harvested at day 10 (PHH), or day 14 (HLC). Compound effect on HBV and cellular toxicity was measured by multiplex assay (HBsAg, HBeAg, albumin), branched DNA (pgRNA), or digital PCR (cccDNA) and depicted as % of inhibition compared to DMSO control. Graphs were prepared using Spotfire software.
# (§3) A custom, Luminex-based multiplex assay that simultaneously measured HBeAg, albumin, and HBsAg was developed by Radix BioSolutions (Georgetown, Tex.). This is a sandwich immunoassay; each capture antibody was coupled with xMAP™ Luminex magnetic beads. The dynamic ranges of analyte detection are as follows: HBeAg (1-316 ng/ml), albumin (3.1-10,000 ng/ml), and HBsAg (0.1-100 ng/ml) with coefficient variant (CV) […]. Samples were read on FlexMAP 3D (Luminex) and analyzed by Genedata software.
# HBeAg = assay: HBeAg, multiplex assay, HBV-infected PHH; assay type: cell-based; conditions: Hepatitis B virus
# Method: as §1, §2, §3
Structure (SMILES),concentration at which mRNA expression of liver-enriched genes is enhanced (liver-enriched genes),"IC50 at 7 days ([1]; HepG2.2.15-derived HBV GT D, MOI 40, read-out: In vitro tox albumin IC50 (μM) Median)","IC50 at 7 days ([1]; HepG2.2.15-derived HBV GT D, MOI 125, read-out: In vitro tox albumin IC50 (μM) Median)","IC50 at 7 days ([1]; primary human hepatocytes (PXB-PHH) infected with HBV, patient-derived HBV (GT D), read-out: In vitro tox albumin IC50 (μM) Median)","IC50 at 7 days ([1]; primary human hepatocytes (PXB-PHH) infected with HBV, patient-derived HBV GT A, MOI 40, day 10 pi, read-out: In vitro tox albumin IC50 (μM) Median)","IC50 at 7 days ([1]; primary human hepatocytes (PXB-PHH) infected with HBV, patient-derived HBV GT B, MOI 40, day 10 pi, read-out: In vitro tox albumin IC50 (μM) Median)","IC50 at 7 days ([1]; primary human hepatocytes (PXB-PHH) infected with HBV, patient-derived HBV GT C, MOI 40, day 10 pi, read-out: In vitro tox albumin IC50 (μM) Median)","IC50 at 7 days ([1]; primary human hepatocytes (PXB-PHH) infected with HBV, patient-derived HBV GT D, MOI 40 (Table 6), read-out: In vitro tox albumin IC50 (μM) Median)","IC50 at 7 days ([1]; primary human hepatocytes (PXB-PHH) infected with HBV, patient-derived HBV GT D, MOI 40, day 10 pi (Table 5), read-out: In vitro tox albumin IC50 (μM) Median)","IC50 at 7 days ([1]; primary human hepatocytes (PXB-PHH) infected with HBV, patient-derived HBV GT D, MOI 125, read-out: In vitro tox albumin IC50 (μM) Median)","IC50 (HBeAg; 240 h, read-out: HBeAg IC50 (μM) Median, PHH, patient-derived HBV GT A, MOI 40, day 10 pi)","IC50 (HBeAg; 240 h, read-out: HBeAg IC50 (μM) Median, PHH, patient-derived HBV GT B, MOI 40, day 10 pi)","IC50 (HBeAg; 240 h, read-out: HBeAg IC50 (μM) Median, PHH, patient-derived HBV GT C, MOI 40, day 10 pi)","IC50 (HBeAg; 240 h, read-out: HBeAg IC50 (μM) Median, PHH, patient-derived HBV GT D, MOI 40, day 10 pi (Table 5))","IC50 (HBeAg; read-out: HBeAg IC50 (μM) Median, PHH, HepG2.2.15-derived HBV GT D, MOI 40)","IC50 (HBeAg; read-out: HBeAg IC50 (μM) Median, PHH, HepG2.2.15-derived HBV GT D, MOI 125)","IC50 (HBeAg; read-out: HBeAg IC50 (μM) Median, PHH, patient-derived HBV (GT D))","IC50 (HBeAg; read-out: HBeAg IC50 (μM) Median, PHH, patient-derived HBV GT D, MOI 40 (Table 6))","IC50 (HBeAg; read-out: HBeAg IC50 (μM) Median, PHH, patient-derived HBV GT D, MOI 125)","pIC50 (HBeAg; read-out: HBeAg IC50s, PHH, patient-derived HBV GT A-D, range stated in text for HBsAg & HBeAg)"
O=C(NCc1cccc(F)c1)c1cccc2[nH]c(-c3c(NC[C@@H](O)c4ccccc4)cc[nH]c3=O)nc12 [MB-1],55 µM,–,–,–,–,–,–,–,–,–,–,–,–,–,–,–,–,–,–,–
O=C(NC(CO)CO)c1c[nH]c2ncc(C3CC3)nc12 [compound 7],–,21.1 µM,20.2 µM,20.9 µM,20.3 µM,19.2 µM,23.2 µM,23.7 µM,23.7 µM,20.5 µM,0.4 µM,0.31 µM,0.35 µM,0.31 µM,15.3 µM,15.9 µM,0.39 µM,0.32 µM,0.57 µM,6.35 to 6.62
